Experimental data: patent publication US20220364184A1, “COMPOSITIONS AND METHODS FOR TREATMENT OF A POOR PROGNOSIS SUBTYPE OF COLORECTAL CANCER” (DANA-FARBER CANCER INSTITUTE, INC., priority 2019, published 2022)
“Also recorded” adds a separate entry of the source.

How the values were obtained:
[1] = tested on: RKO cells; assay: Wound healing (scratch) assay with calcium wave imaging; type: cell-based, human; details: for display of primary and secondary calcium waves after scratching: FIG. 19E-F, verapamil 500 nM
Method: Wild-type or BCL9 knockout cells were grown in 6-well plates or Nunc™ Glass Bottom Dishes (150680, ThermoFisher®) for 24 hrs until cells reached 90% confluency. A 1 ml pipette tip was used to scratch the monolayer of cells across the center of each well. The cells were imaged at 0 and 24 hours after scratching. To investigate the effect of BCL9 on calcium waves (FIG. 5H), cells were cultured in glass-bottomed 96-well plates for 24 hrs until they reached 90% confluency. […] A 200 μl pipette tip was used to scratch the cell monolayer from the top left to the bottom right corner of the well. At various times after the scratch was made, cells were fixed with 4% paraformaldehyde for 15 minutes at room temperature. Immunofluorescence was subsequently used to identify the location of BCL9 (see immunofluorescence method section for more detail). The wound edge in the center of the well was defined as “adjacent” and the area in the top right corner was defined as “distance” (FIG. 4H).
To trace the calcium transient in real time, GCaMP5G (#31788, Addgene®) was transfected into wild-type or BCL9 knockout RKO and Colo320 cell lines. 2 mg/ml neomycin was added to the cell culture medium 48 hrs after transfection to generate cell lines with stable GCaMP5 expression and removed one week prior to the initiation of experiment. Calcium transients were captured by live-cell imaging using a confocal microscope. […] Calcium measurements were normalized to background fluorescence and the relative change in calcium (F(t)) over time was calculated by the formula: […]
where F0 was defined as the average intensity of the 20% lowest grey values in a region of interest (ROI), F was defined as the normalized grey values of ROI in time point t. Global synchronicity was calculated by cross correlation method in FluoroSNNAP (seas.upenn.edu/˜molneuro/fluorosnnap.html). The frequency spectrum was calculated by fast Fourier transform (Uhlen, P. (2004). Sci. STKE 2004, p 115), the time difference between each sample is 0.5 s.

[2] = tested on: RKO cells; assay: Live-cell calcium imaging of spontaneous calcium transients (GCaMP5); type: cell-based, human; details: for spontaneous calcium transients: FIG. 4C; for propagation of calcium transients: FIG. 5E
Method: 2 mg/ml neomycin was added to the cell culture medium 48 hrs after transfection to generate cell lines with stable GCaMP5 expression and removed one week prior to the initiation of experiment. Calcium transients were captured by live-cell imaging using a confocal microscope. Time lapse imaging was setup so that an image was captured every 0.5 s for 30 minutes, with an exposure time of 0.5 s. Calcium measurements were normalized to background fluorescence and the relative change in calcium (F(t)) over time was calculated by the formula: […]
where F0 was defined as the average intensity of the 20% lowest grey values in a region of interest (ROI), F was defined as the normalized grey values of ROI in time point t. Global synchronicity was calculated by cross correlation method in FluoroSNNAP (seas.upenn.edu/˜molneuro/fluorosnnap.html).

[3] = tested on: RGS4, CACNA2D1, ADRB1 mRNA; assay: mRNA expression by RNA-seq / qRT-PCR; type: cell-based, human; details: both wild-type and BCL9 knockout RKO cells, qRT-PCR, FIG. 17A
Method: RNA was extracted from wild type and BCL9 knockout RKO cells with or without Poly I:C treatment (1 μg/ml) and subsequently purified using the TURBO DNA-free™ Kit (AM1907, invitrogen) to remove any residual DNA. An RNA library was prepared using the ribosome RNA removing method and sequenced with a 150 bp paired-end protocol in the Center for Cancer Computational Biology at the Dana Farber Cancer Institute (PRJNA554110). After quality control (QC) analysis was performed using fastQC, the first 10 bases were trimmed for each read. STAR software was used to map the readings to the human genome (hg19) and duplicates were removed using Picard. HTSeq was used to evaluate the gene expression levels by the count number for each gene and were subsequently annotated using the Ensemble database. Gene differential analysis was then applied to the expression profiling table using R package edgeR. For further analysis, the difference in exon usage between different conditions was calculated and R package DEXSeq was used to find differences between them.

[4] = tested on: RKO cells; assay: In vivo mouse xenograft model (RKO-luciferase, intraperitoneal)
Method: A total of 4×10^6 wild-type or BCL9 knockout RKO cells stably transduced with a reporter expressing Luciferase were injected intraperitoneally into CB17.Cg-PrkdcscidLystbg-J/Crl (Beige) mice (n=7 per group), and tumor burden was monitored by whole-body imaging using Xenogen system every week for 4 weeks, starting one day after injection of cells. After last imaging, all mice were euthanized and all tumor nodules identified in the peritoneal cavity were dissected and processed for histological and immunohistochemical analysis. To quantify β-catenin and Ki-67 stains serial consecutive sections were scanned using Vectra 2 Intelligent Slide Analysis system; percentage of positive cells (Ki-67, CD163, CD31, or αSMA) or areas (β-catenin) were assessed using inform Cell Analysis software (PerkinElmer®). P-values were calculated using unpaired Student's t-test. Propranolol hydrochloride (Millapore-Sigma®) was added to the drinking water at a concentration of 0.5 g/L on the injection day. Drug solution was renewed every 2 days.
TMA sections (from Oncology Pathology, Dana Farber Cancer Institute) were pre-heated at 65 degrees for 20 mins and then deparaffined by performing the following washing steps: xylene 3×5 mins, 100% ethanol 5 mins, 95% ethanol 5 mins, 75% ethanol 5 mins, 50% ethanol 5 mins, 25% ethanol 5 mins, and rinsed by cold water. Sections were subsequently heated in a microwave with antigen retrieval buffer (10 mM Tris Base, 1 mM EDTA Solution, 0.05% Tween 20, pH 9.0). Sections were washed twice with TBS plus 0.5% Triton X-100 (v/v) and blocked with 5% BSA for 1 hr at room temperature. Sections were incubated overnight with the following antibodies at 4 degrees: BCL9 (ab37305, Abcam®), FAP (AF3715, R&D), β-catenin (610154, BD Transduction Laboratories), SYP (PA0299, Lecia), PDGFB (ab23914, Abcam®), C3 (HPA003563, Millapore-Sigma®), RGS4 (sc-398348, Santa Cruz®), CD163 (182422, Abcam®), CD31 (77699, Cell Signaling®), αSMA (19245, Cell Signaling®), or Axin2 (#2151, Cell Signaling®). The sections were washed three times before incubation with secondary antibody for 2 hours at room temperature. The sections were then washed three times before signal amplification with HRP polymer or fluorescence. ImageJ2 software was used to carry out semi-quantitative analysis of the staining intensities, which ranged from 0 (negative) to 3 (strong staining). Subsequently the H-score was calculated using the following formula;

[5] = tested on: RKO, Colo320, SW620, LS174T, DLD-1 cells; assay: Cell viability assay of CRC cell lines; details: Colo320, and SW620 more than LS174T or DLD-1 cells, increased concentrations, FIG. 20C
[6] = target: T1, B-cell lymphoma 9 (BCL9) (human, UniProt O00512 1-1426); assay: co-IP with anti-β-catenin antibody, untreated and poly I:C treated Colo320 cells
T1 construct: Endogenous protein in nuclear lysates of human CRC cell lines (RKO, Colo320, SW620, LS174T, DLD-1)
T1 sequence: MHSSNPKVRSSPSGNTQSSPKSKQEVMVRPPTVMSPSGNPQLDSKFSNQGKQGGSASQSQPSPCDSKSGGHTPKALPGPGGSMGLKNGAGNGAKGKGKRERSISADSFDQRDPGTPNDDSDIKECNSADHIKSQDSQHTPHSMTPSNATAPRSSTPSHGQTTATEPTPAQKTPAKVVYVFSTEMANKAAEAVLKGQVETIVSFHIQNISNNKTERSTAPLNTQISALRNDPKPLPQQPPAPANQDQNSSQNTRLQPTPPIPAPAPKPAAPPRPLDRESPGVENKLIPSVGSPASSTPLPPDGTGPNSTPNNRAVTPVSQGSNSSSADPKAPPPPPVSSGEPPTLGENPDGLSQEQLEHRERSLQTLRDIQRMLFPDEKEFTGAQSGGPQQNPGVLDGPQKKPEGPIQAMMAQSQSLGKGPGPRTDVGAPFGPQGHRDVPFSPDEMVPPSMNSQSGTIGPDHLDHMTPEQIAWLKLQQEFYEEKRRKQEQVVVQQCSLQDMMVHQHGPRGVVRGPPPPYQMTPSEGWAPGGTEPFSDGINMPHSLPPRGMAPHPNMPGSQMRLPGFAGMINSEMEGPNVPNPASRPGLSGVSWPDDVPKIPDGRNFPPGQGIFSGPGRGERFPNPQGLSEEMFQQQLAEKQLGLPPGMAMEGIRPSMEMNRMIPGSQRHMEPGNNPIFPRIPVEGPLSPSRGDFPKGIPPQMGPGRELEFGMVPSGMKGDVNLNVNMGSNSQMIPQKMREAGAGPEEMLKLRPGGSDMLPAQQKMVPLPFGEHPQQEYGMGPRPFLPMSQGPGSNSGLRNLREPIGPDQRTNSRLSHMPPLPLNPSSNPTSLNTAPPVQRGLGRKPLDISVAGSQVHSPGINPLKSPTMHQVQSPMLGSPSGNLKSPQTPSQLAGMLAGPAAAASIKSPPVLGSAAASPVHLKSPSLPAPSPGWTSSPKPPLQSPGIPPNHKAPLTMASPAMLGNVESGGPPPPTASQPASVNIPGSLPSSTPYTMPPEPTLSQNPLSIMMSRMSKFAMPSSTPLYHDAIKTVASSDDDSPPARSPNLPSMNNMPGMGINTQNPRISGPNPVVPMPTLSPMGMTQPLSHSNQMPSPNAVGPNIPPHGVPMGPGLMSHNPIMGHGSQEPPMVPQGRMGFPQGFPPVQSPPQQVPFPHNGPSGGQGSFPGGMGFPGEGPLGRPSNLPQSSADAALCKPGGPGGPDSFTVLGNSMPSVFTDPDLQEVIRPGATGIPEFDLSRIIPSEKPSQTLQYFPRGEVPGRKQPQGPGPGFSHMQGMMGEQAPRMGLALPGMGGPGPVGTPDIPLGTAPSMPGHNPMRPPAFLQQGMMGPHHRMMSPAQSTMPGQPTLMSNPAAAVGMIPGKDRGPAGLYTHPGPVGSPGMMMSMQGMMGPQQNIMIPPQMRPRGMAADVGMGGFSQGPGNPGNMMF

## O=C(O)CN(CCN(CC(=O)O)CC(=O)O)CC(=O)O [EDTA, ethylene diamine tetra-acetic acid]
[1]
  display of primary and secondary calcium waves after scratching: disappeared; also recorded: blocked
[2]; RKO cells
  spontaneous calcium transients: disappeared

## CC(C)(C)NCC(O)c1cc(O)cc(O)c1 (stereo not drawn) [Terbutaline]
[2]; BCL9 knockout RKO cells
  propagation of calcium transients: not
[2]; wild-type RKO cells
  propagation of calcium transients: induced

## NCCc1ccc(O)c(O)c1 [dopamine]
[3]
  expression of RGS4 and CACNA2D1 mRNAs: increased

## CC(C)NCC(O)COc1cccc2ccccc12 (stereo not drawn) [propranolol, 2-propanol, 1-[(1-methylethyl)amino]-3-(1-naphthalenyloxy)]
[4]; RKO xenograft, FIG. 6H-I
  number of endothelial cells within tumor microenvironment (CD31): marked reduction
  number of mouse derived M2 macrophages within tumor microenvironment (CD163): marked reduction
  number of myofibroblast cells within tumor microenvironment (αSMA): not
[4]; control vs treated groups
  expression of Axin2 in xenograft tumors: did not display differences
[4]; three weeks after RKO cell injection, 0.5 g/L in drinking water, n=7
  mice that had died with extensive tumor burden: none
[4]; three weeks post tumor injection, 0.5 g/L in drinking water
  tumor burden (whole-body imaging): disappeared in most
[1]; FIG. 5F
  calcium transient activation after scratching: inhibited calcium transients only in a subset of cells; also recorded: very few of them were activated
[5]
  viability of CRC cell lines: significantly reduced
[2]; RKO cells, FIG. 20B
  amplitude, frequency, and synchronicity of spontaneous calcium waves: reduced

## COc1ccc(CCN(C)CCCC(C#N)(c2ccc(OC)c(OC)c2)C(C)C)cc1OC (stereo not drawn) [verapamil, Benzeneacetonitrile, α-[3-[[2-(3,4-dimethoxyphenyl)ethyl]methylamino]propyl]-3,4-dimethoxy-α-(1-methylethyl)]
[1]
  display of primary and secondary calcium waves after scratching: disappeared; also recorded: blocked
[5]
  viability of CRC cell lines: significantly reduced
[2]; RKO cells
  spontaneous calcium transients: disappeared

B1: β-catenin (other, UniProt P35222 2-781, looked up)
chain: ATQADLMELDMAMEPDRKAAVSHWQQQSYLDSGIHSGATTTAPSLSGKGNPEEEDVDTSQVLYEWEQGFSQSFTQEQVADIDGQYAMTRAQRVRAAMFPETLDEGMQIPSTQFDAAHPTNVQRLAEPSQMLKHAVVNLINYQDDAELATRAIPELTKLLNDEDQVVVNKAAVMVHQLSKKEASRHAIMRSPQMVSAIVRTMQNTNDVETARCTAGTLHNLSHHREGLLAIFKSGGIPALVKMLGSPVDSVLFYAITTLHNLLLHQEGAKMAVRLAGGLQKMVALLNKTNVKFLAITTDCLQILAYGNQESKLIILASGGPQALVNIMRTYTYEKLLWTTSRVLKVLSVCSSNKPAIVEAGGMQALGLHLTDPSQRLVQNCLWTLRNLSDAATKQEGMEGLLGTLVQLLGSDDINVVTCAAGILSNLTCNNYKNKMMVCQVGGIEALVRTVLRAGDREDITEPAICALRHLTSRHQEAEMAQNAVRLHYGLPVVVKLLHPPSHWPLIKATVGLIRNLALCPANHAPLREQGAIPRLVQLLVRAHQDTQRRTSMGGTQQQFVEGVRMEEIVEGCTGALHILARDVHNRIVIRGLNTIPLFVQLLYSPIENIQRVAAGVLCELAQDKEAAEAIEAEGATAPLTELLHSRNEGVATYAAAVLFRMSEDKPQDYKKRLSVELTSSLFRTEPMAWNETADLGLDIGAQGEPLGYRQDDPSYRSFHSGGYGQDALGMDPMMEHEMGGHHPGADYPVDGLPDLGHAQDLMDGLPPGDSNQLAWFDTDL
notes: Endogenous protein in cell lysates; co-IP with anti-β-catenin (9562L, Cell Signaling) or anti-BCL9 antibody; also called B-catenin
[6]
  binding result: binds
